According to patent publication US20250319054A1, “Synthetic Eicosanoid Analogues for the Treatment and Prevention of Diseases Associated with Increased GDF15 Plasma Concentration” (OMEICOS Therapeutics GmbH, priority 2021, published 2025):

What was measured:
[1] = tested on: IL-6; assay: Clinical phase II study: IL-6 plasma concentration; format: in vivo, human
Protocol: (§1) In a clinical phase II study 119 patients with persistent atrial fibrillation were investigated with regard to the effect of treatment with Compound-02 (structure of general formula (VI)). The patients were divided into a placebo group and three treatment groups with different dosing of Compound-02. The low, medium and high dosing groups received an oral once daily dosing of 4 mg, 12 mg or 24 mg of Compound-02, respectively.
(§2) The study participants received an implantable cardiac monitor (ICM) at least one week prior to start of treatment with Compound-02. The treatment with Compound-02 was maintained for a total period of three months (i.e. Day 1 to Day 99) and started at least 1 week prior to direct current cardioversion (DCC) (see FIG. 1 for details of study protocol).
(§3) Plasma samples were taken from the patients at different study visits. Biomarkers were analyzed at baseline (V3) and at the end of treatment (V8). For 119 study participants complete sets of biomarkers could be obtained.

[2] = tested on: patients with persistent atrial fibrillation; assay: Clinical phase II study: safety; format: in vivo, human; conditions: oral once daily 4, 12 or 24 mg, three months
Protocol: as §1, §2

[3] = tested on: PTX-3; assay: Clinical phase II study: PTX-3 plasma concentration; format: in vivo, human; conditions: baseline to end-of-treatment (3 months); dose-dependent
Protocol: as §1, §2, §3

[4] = tested on: GDF-15; assay: Clinical phase II study: GDF-15 plasma concentration (sandwich ELISA); format: in vivo, human; conditions: baseline to end-of-treatment (3 months); dose-dependent
Protocol: as §1, §2, §3
GDF-15 concentrations were measured in EDTA treated plasma samples with a solid phase sandwich ELISA (Human GDF-15 Quantikine ELISA kit, R&D Systems) using an immobilized mouse monoclonal anti-GDF-15 and a horseradish peroxidase-conjugated monoclonal anti-GDF-15 antibody. […] The reaction product is measured spectrophotometrically at 450 nm (Sunrise Absorbance Reader, TECAN).

[5] = tested on: patients suffering from CAD; conditions: CANTOS study patients with reduced circulating IL-6 levels; cited from earlier work
[6] = tested on: IL-6; conditions: CANTOS study, 4833 CAD patients; cited from earlier work

Molecule | reduction of IL-6 plasma concentration vs. placebo ([1]; baseline to end-of-treatment (3 months), dose-dependent) | reduction of IL-6 levels in response to treatment ([1]; clinical study) | changes in the ECG or other types of arrhythmias [2] | safety profile [2] | reduction of PTX-3 plasma concentration vs. placebo [3] | reduction of GDF-15 plasma concentration vs. placebo [4] | reduction in major adverse cardiac events (MACE) compared to the placebo group [5] | circulating IL-6 levels [6]
CNC(=O)C(=O)NCCCC/C=C\CCCCCCCOCC(=O)O [Compound-02] | 30% | 25-40% | no changes | good safety profile | 55% | 30% |  | 
Canakinumab: anti-IL-1β antibody that modulates the IL-6 pathway |  |  |  |  |  |  | 32% | reduces circulating IL-6 levels
